Measurements reported in ChEMBL document CHEMBL5247668, “Design, synthesis and biological evaluation of novel indole-3-carboxylic acid derivatives with antihypertensive activity” (Bioorg Med Chem Lett, 2023).
The source made the active and inactive calls. The rule behind the calls is not given here.

Experiments:
Rattus norvegicus [1] = test: Antihypertensive activity in spontaneously hypertensive rat assessed as decrease in maximal mean blood pressure at 10 mg/kg, po; type: functional
[2] = molecular target: T1, Type-1 angiotensin II receptor (Homo sapiens, UniProt P30556); test: Displacement of [125I]-Angiotensin II from Angiotensin II type-1 receptor in VSMC cells (unknown origin) by competition radioligand binding assay; type: cell-based
T1 sequence (P30556 whole entry): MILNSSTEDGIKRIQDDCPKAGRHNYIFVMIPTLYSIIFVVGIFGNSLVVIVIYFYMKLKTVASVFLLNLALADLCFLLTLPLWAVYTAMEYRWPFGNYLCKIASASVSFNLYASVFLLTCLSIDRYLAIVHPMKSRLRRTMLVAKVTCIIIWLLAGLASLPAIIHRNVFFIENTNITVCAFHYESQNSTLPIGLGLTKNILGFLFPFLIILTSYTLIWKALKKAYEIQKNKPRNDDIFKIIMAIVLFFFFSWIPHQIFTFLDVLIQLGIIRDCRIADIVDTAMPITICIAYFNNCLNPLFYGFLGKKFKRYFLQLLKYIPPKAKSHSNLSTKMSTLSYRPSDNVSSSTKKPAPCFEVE

[3] = molecular target: T1, Type-1 angiotensin II receptor; test: Displacement of [125I]-Angiotensin II from Angiotensin II type-1 receptor in VSMC cells (unknown origin) assessed as inhibition constant by competition radioligand binding assay; type: cell-based
[4] = Cmax in spontaneously hypertensive Wistar rat at 10 mg/kg, po; type: ADME, organism-based; design: dose 10 mg/kg, route po; conditions: in vivo
[5] = Tmax in spontaneously hypertensive Wistar rat at 10 mg/kg, po; type: ADME, organism-based; conditions: in vivo
[6] = Half life in spontaneously hypertensive Wistar rat at 10 mg/kg, po; type: ADME, organism-based; conditions: in vivo
[7] = AUC (0 to 72 hrs) in spontaneously hypertensive Wistar rat at 10 mg/kg, po; type: ADME, organism-based; design: dose 10 mg/kg, route po; conditions: in vivo
[8] = AUC (0 to infinity) in spontaneously hypertensive Wistar rat at 10 mg/kg, po; type: ADME, organism-based; design: dose 10 mg/kg, route po; conditions: in vivo
[9] = MRT (0 to 72 hrs) in spontaneously hypertensive Wistar rat at 10 mg/kg, po; type: ADME, organism-based; conditions: in vivo
[10] = MRT (0 to infinity) in spontaneously hypertensive Wistar rat at 10 mg/kg, po; type: ADME, organism-based; conditions: in vivo
Rattus norvegicus [11] = test: Antihypertensive activity in spontaneously hypertensive rat assessed as decrease in maximal mean blood pressure at 10 mg/kg, po measured for 24 hrs; type: functional, organism-based
Rattus norvegicus [12] = test: Antihypertensive activity in spontaneously hypertensive rat assessed as decrease in blood pressure at 5 to 10 mg/kg, po; type: functional, organism-based; conditions: dose 5-10 mg/kg

SMILES	IC50 [2]	Ki [3]	Activity (Rattus norvegicus [12])	other results
CCCCc1nc(Cl)c(CO)n1Cc1ccc(-c2ccccc2-c2nnn[nH]2)cc1 [LOSARTAN]				Activity (Rattus norvegicus [1]): 42.5 mmHg
O=C(O)c1c(-c2ccccc2)n(C(=O)c2ccccc2)c2ccccc12	12.3 nM	11 nM	Active	Activity (Rattus norvegicus [1]): 48.6 mmHg; Cmax [4]: 18.1 ng/mL; Tmax [5]: 2.7 h; half-life [6]: 19.9 h; AUC(0-t) [7]: 253 ng·h/mL; AUC(0-inf) [8]: 260 ng·h/mL; MRT last [9]: 20.2 h; MRT inf [10]: 30.3 h; Activity (Rattus norvegicus [11]): Active
CCCCc1c(C(=O)O)c2ccccc2n1C(=O)c1ccccc1	22.2 nM	21.9 nM	Active	
CS(=O)(=O)n1c(COCc2ccccc2)c(C(=O)O)c2ccccc21	25.5 nM	24.7 nM	Active	
Cc1ccc(S(=O)(=O)n2c(CO)c(C(=O)O)c3ccccc32)cc1	24.2 nM	23.3 nM	Active	
CCCCc1c(C(=O)O)c2ccccc2n1S(=O)(=O)c1ccc(C)cc1	28.3 nM	27.3 nM	Active	
CS(=O)(=O)n1c(CO)c(C(=O)O)c2ccccc21	27.1 nM	26.3 nM	Active	
O=C(O)c1c(COCc2ccccc2)n(C(=O)c2ccccc2)c2ccccc12	32.2 nM	31.4 nM	Active	
Cc1ccc(S(=O)(=O)n2c(-c3ccccc3)c(C(=O)O)c3ccccc32)cc1	18 nM	16.4 nM	Active	
CS(=O)(=O)n1c(-c2ccccc2)c(C(=O)O)c2ccccc21	11.3 nM	10.8 nM	Active	Activity (Rattus norvegicus [1]): 46.3 mmHg; Activity (Rattus norvegicus [11]): Active
O=C(O)c1c(CO)n(C(=O)c2ccccc2)c2ccccc12	31.1 nM	30.8 nM	Active	
Cc1ccc(S(=O)(=O)n2c(COCc3ccccc3)c(C(=O)O)c3ccccc32)cc1	22.4 nM	21.7 nM	Active	
CCCCc1c(C(=O)O)c2ccccc2n1S(C)(=O)=O	29.2 nM	28.6 nM	Active	
